In ChEMBL document CHEMBL1201862, “PubChem BioAssay data set” (2004):
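In this assay, cells in 96-well plates receive the compound at five concentrations for 48 hours. Endpoints are linearly interpolated between the surrounding concentrations. GI50 is the concentration that inhibits growth by half.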 The source made the active and inactive calls. Rule as the data show it: active = GI50 up to about 1.1 µM and inactive = higher.

Columns and labels:
Test in all cases: DTP human tumour cell line panel, 48 h
[1] = test system: 786-0
[2] = test system: ACHN
[3] = test system: BT-549
[4] = test system: COLO 205
[5] = test system: HL-60
[6] = test system: MDA-N
[7] = test system: NCI-H226
[8] = test system: OVCAR-5
[9] = test system: OVCAR-8
[10] = test system: PC-3
[11] = test system: RXF 393
[12] = test system: SF-539
[13] = test system: SK-MEL-28
[14] = test system: SK-MEL-2
[15] = test system: SK-MEL-5
[16] = test system: SK-OV-3
[17] = test system: SNB-75
[18] = test system: SW-620
[19] = test system: TK-10
[20] = test system: UACC-257

With `COc1ccc(/C=C/c2cnc3ccccc3n2)cc1OC` the GI50 [1] was 53.6 µM (inactive), the GI50 [2] was > 100 µM (inactive) and the GI50 [3] was 57.1 µM (inactive). The GI50 [4] was 72.1 µM (inactive), the GI50 [5] was 47.2 µM (inactive) and the GI50 [6] was 59 µM (inactive). For the same compound, the GI50 [7] was > 100 µM (inactive), the GI50 [8] was > 100 µM (inactive) and the GI50 [9] was 41.7 µM (inactive). The GI50 [10] was 33.1 µM (inactive), the GI50 [11] was > 100 µM (inactive) and the GI50 [12] was > 100 µM (inactive). The GI50 [13] was 92.3 µM (inactive), the GI50 [14] was 92.7 µM (inactive) and the GI50 [15] was 49.3 µM (inactive). The GI50 [16] was 75.7 µM (inactive), the GI50 [17] was 63.8 µM (inactive) and the GI50 [18] was > 100 µM (inactive). The GI50 [19] was > 100 µM (inactive) and the GI50 [20] was > 100 µM (inactive).
With `O=P(O)(O)CC1OC(CO)C(O)C1O` (stereo not given) the GI50 [1] was > 100 µM (inactive), the GI50 [2] was > 100 µM (inactive) and the GI50 [3] was > 100 µM (inactive). For the same compound, the GI50 [4] was > 100 µM (inactive), the GI50 [5] was > 100 µM (inactive) and the GI50 [6] was > 100 µM (inactive). For the same compound, the GI50 [7] was > 100 µM (inactive), the GI50 [8] was > 100 µM (inactive) and the GI50 [9] was > 100 µM (inactive). The GI50 [10] was > 100 µM (inactive), the GI50 [11] was > 100 µM (inactive) and the GI50 [12] was > 100 µM (inactive). For the same compound, the GI50 [13] was > 100 µM (inactive), the GI50 [14] was > 100 µM (inactive) and the GI50 [15] was > 100 µM (inactive). For the same compound, the GI50 [16] was > 100 µM (inactive), the GI50 [17] was > 100 µM (inactive) and the GI50 [18] was > 100 µM (inactive). For the same compound, the GI50 [19] was > 100 µM (inactive) and the GI50 [20] was > 100 µM (inactive).
With `CS(=O)(=O)Nc1ccc2ccccc2c1-c1c(NS(C)(=O)=O)ccc2ccccc12` the GI50 [1] was > 15.5 µM (inactive), the GI50 [2] was 0.982 µM (active) and the GI50 [3] was > 25 µM (inactive). The GI50 [4] was > 25 µM (inactive), the GI50 [5] was > 25 µM (inactive) and the GI50 [6] was > 25 µM (inactive). For the same compound, the GI50 [7] was > 25 µM (inactive), the GI50 [8] was > 25 µM (inactive) and the GI50 [9] was > 25 µM (inactive). The GI50 [10] was > 25 µM (inactive), the GI50 [11] was > 21.5 µM (inactive) and the GI50 [12] was > 25 µM (inactive). For the same compound, the GI50 [13] was > 25 µM (inactive), the GI50 [14] was > 25 µM (inactive) and the GI50 [15] was > 25 µM (inactive). For the same compound, the GI50 [16] was > 25 µM (inactive), the GI50 [17] was > 19.1 µM (inactive) and the GI50 [18] was > 25 µM (inactive). For the same compound, the GI50 [19] was > 25 µM (inactive) and the GI50 [20] was > 25 µM (inactive).
In the case of `CC(C)c1cc(C(C)C)c(P2(=O)CC3C(Cl)(Cl)C3(C)C2)c(C(C)C)c1` (stereo not given), the GI50 [1] was 6.22 µM (inactive), the GI50 [2] was 12.5 µM (inactive) and the GI50 [3] was 13.7 µM (inactive). The GI50 [4] was 11.7 µM (inactive), the GI50 [5] was 4.2 µM (inactive) and the GI50 [6] was 10.9 µM (inactive). The GI50 [7] was 16.7 µM (inactive), the GI50 [8] was 16.3 µM (inactive) and the GI50 [9] was 7.67 µM (inactive). For the same compound, the GI50 [10] was 6.7 µM (inactive), the GI50 [11] was 12.9 µM (inactive) and the GI50 [12] was 14 µM (inactive). The GI50 [13] was 15.8 µM (inactive), the GI50 [14] was 11.3 µM (inactive) and the GI50 [15] was 10.1 µM (inactive). The GI50 [16] was 16.4 µM (inactive), the GI50 [17] was 11.6 µM (inactive) and the GI50 [18] was 7.55 µM (inactive). The GI50 [19] was 12.1 µM (inactive) and the GI50 [20] was 7.96 µM (inactive).
For `O=c1ccc2ccc(OP(=O)(O)O)cc2o1`, the GI50 [1] was > 100 µM (inactive), the GI50 [2] was > 100 µM (inactive) and the GI50 [3] was > 100 µM (inactive). For the same compound, the GI50 [4] was > 100 µM (inactive), the GI50 [5] was > 100 µM (inactive) and the GI50 [6] was > 100 µM (inactive). The GI50 [7] was > 100 µM (inactive), the GI50 [8] was > 100 µM (inactive) and the GI50 [9] was > 100 µM (inactive). The GI50 [10] was > 100 µM (inactive), the GI50 [11] was > 100 µM (inactive) and the GI50 [12] was > 100 µM (inactive). The GI50 [13] was > 100 µM (inactive), the GI50 [14] was > 100 µM (inactive) and the GI50 [15] was > 100 µM (inactive). The GI50 [16] was > 100 µM (inactive), the GI50 [17] was > 100 µM (inactive) and the GI50 [18] was > 100 µM (inactive). The GI50 [19] was > 100 µM (inactive) and the GI50 [20] was > 100 µM (inactive).
`Cc1cccc(-c2nc3ccc([N+](=O)[O-])cc3c(=O)o2)c1` was tested, and the GI50 [1] was 48.8 µM (inactive), the GI50 [2] was 83.8 µM (inactive) and the GI50 [3] was 51.4 µM (inactive). For the same compound, the GI50 [4] was > 100 µM (inactive), the GI50 [5] was 59.7 µM (inactive) and the GI50 [6] was > 100 µM (inactive). For the same compound, the GI50 [7] was 71.6 µM (inactive), the GI50 [8] was > 100 µM (inactive) and the GI50 [9] was 46.7 µM (inactive). The GI50 [10] was 58.5 µM (inactive), the GI50 [11] was > 100 µM (inactive) and the GI50 [12] was 27.9 µM (inactive). For the same compound, the GI50 [13] was > 100 µM (inactive), the GI50 [14] was 91.2 µM (inactive) and the GI50 [15] was > 100 µM (inactive). The GI50 [16] was > 100 µM (inactive), the GI50 [17] was > 100 µM (inactive) and the GI50 [18] was 73.3 µM (inactive). The GI50 [19] was 59.3 µM (inactive) and the GI50 [20] was 64.3 µM (inactive).
With `Cc1ccc(C(=O)/C=C(\O)C(=O)NN=C(c2ccccc2)c2ccccc2)cc1` the GI50 [1] was 28.4 µM (inactive), the GI50 [2] was 45 µM (inactive) and the GI50 [3] was 47.9 µM (inactive). For the same compound, the GI50 [4] was 40.4 µM (inactive), the GI50 [5] was 13.9 µM (inactive) and the GI50 [6] was > 100 µM (inactive). The GI50 [7] was > 100 µM (inactive), the GI50 [8] was > 100 µM (inactive) and the GI50 [9] was 76.4 µM (inactive). For the same compound, the GI50 [10] was 40.2 µM (inactive), the GI50 [11] was > 100 µM (inactive) and the GI50 [12] was > 100 µM (inactive). For the same compound, the GI50 [13] was > 100 µM (inactive), the GI50 [14] was > 100 µM (inactive) and the GI50 [15] was 53.1 µM (inactive). The GI50 [16] was > 100 µM (inactive), the GI50 [17] was 82.4 µM (inactive) and the GI50 [18] was 50.5 µM (inactive). The GI50 [19] was > 100 µM (inactive) and the GI50 [20] was > 100 µM (inactive).
`CC(C)CC(NC(=O)OC(C)(C)C)C(=O)Nc1ccc(Nc2nc(F)nc(-c3c4ccccc4cn3C)n2)cc1` (stereo not given) was tested, and the GI50 [1] was > 100 µM (inactive), the GI50 [2] was 62.7 µM (inactive) and the GI50 [3] was > 100 µM (inactive). The GI50 [4] was 18.6 µM (inactive), the GI50 [5] was 3.94 µM (inactive) and the GI50 [6] was > 100 µM (inactive). The GI50 [7] was > 100 µM (inactive), the GI50 [8] was > 100 µM (inactive) and the GI50 [9] was 98.6 µM (inactive). The GI50 [10] was 35.1 µM (inactive), the GI50 [11] was 22.2 µM (inactive) and the GI50 [12] was > 93.3 µM (inactive). For the same compound, the GI50 [13] was > 100 µM (inactive), the GI50 [14] was > 100 µM (inactive) and the GI50 [15] was > 100 µM (inactive). The GI50 [16] was > 100 µM (inactive), the GI50 [17] was 47.1 µM (inactive) and the GI50 [18] was > 36 µM (inactive). The GI50 [19] was > 92.7 µM (inactive) and the GI50 [20] was > 100 µM (inactive).
With `Cc1ccc(/C=N/Nc2ccccn2)s1` the GI50 [1] was > 54.7 µM (inactive), the GI50 [2] was > 100 µM (inactive) and the GI50 [3] was 81.3 µM (inactive). For the same compound, the GI50 [4] was > 100 µM (inactive), the GI50 [5] was > 76.7 µM (inactive) and the GI50 [6] was > 54 µM (inactive). The GI50 [7] was > 56.5 µM (inactive), the GI50 [8] was > 100 µM (inactive) and the GI50 [9] was > 100 µM (inactive). For the same compound, the GI50 [10] was > 100 µM (inactive), the GI50 [11] was > 100 µM (inactive) and the GI50 [12] was > 100 µM (inactive). For the same compound, the GI50 [13] was > 100 µM (inactive), the GI50 [14] was > 100 µM (inactive) and the GI50 [15] was > 100 µM (inactive). For the same compound, the GI50 [16] was > 100 µM (inactive), the GI50 [17] was 36.7 µM (inactive) and the GI50 [18] was > 100 µM (inactive). For the same compound, the GI50 [19] was > 31.6 µM (inactive) and the GI50 [20] was > 100 µM (inactive).
In the case of `CCCCCCCCOC1C(O)C(O)C(O)C(O)C12CO2` (stereo not given), the GI50 [1] was 73.8 µM (inactive), the GI50 [2] was 53.8 µM (inactive) and the GI50 [3] was 37.6 µM (inactive). For the same compound, the GI50 [4] was > 100 µM (inactive), the GI50 [5] was 42 µM (inactive) and the GI50 [6] was 32.4 µM (inactive). For the same compound, the GI50 [7] was 86.1 µM (inactive), the GI50 [8] was > 10 µM (inactive) and the GI50 [9] was 62.7 µM (inactive). The GI50 [10] was 55.3 µM (inactive), the GI50 [11] was 29 µM (inactive) and the GI50 [12] was > 100 µM (inactive). For the same compound, the GI50 [13] was > 100 µM (inactive), the GI50 [14] was 53.8 µM (inactive) and the GI50 [15] was > 10 µM (inactive). For the same compound, the GI50 [16] was 38.3 µM (inactive), the GI50 [17] was 32 µM (inactive) and the GI50 [18] was 45.4 µM (inactive). For the same compound, the GI50 [19] was > 100 µM (inactive) and the GI50 [20] was > 100 µM (inactive).
In the case of `COc1nc(C(Cl)(Cl)Cl)c(Cl)c(OC)c1Cl` [PENCLOMEDINE], the GI50 [1] was 6.59 µM (inactive), the GI50 [2] was 39.3 µM (inactive) and the GI50 [3] was 38 µM (inactive). The GI50 [4] was 44.1 µM (inactive), the GI50 [5] was 7.46 µM (inactive) and the GI50 [6] was 26.9 µM (inactive). For the same compound, the GI50 [7] was 34.4 µM (inactive), the GI50 [8] was 42.9 µM (inactive) and the GI50 [9] was 21.2 µM (inactive). The GI50 [10] was 39.6 µM (inactive), the GI50 [11] was 36.7 µM (inactive) and the GI50 [12] was 40.8 µM (inactive). For the same compound, the GI50 [13] was 39.7 µM (inactive), the GI50 [14] was 35.1 µM (inactive) and the GI50 [15] was 22.5 µM (inactive). For the same compound, the GI50 [16] was 16.2 µM (inactive), the GI50 [17] was 7.76 µM (inactive) and the GI50 [18] was 39.4 µM (inactive). For the same compound, the GI50 [19] was 52.6 µM (inactive) and the GI50 [20] was 43.8 µM (inactive).
